Measured values from paper PMC5342262, “Synthesis, in vitro and in vivo evaluation of 3β-[^18F]fluorocholic acid for the detection of drug-induced cholestasis in mice” (PLoS ONE, 2017).
Where “and” joins values, the source holds several entries; their conditions need not be identical. Identical values can stand only once. Entries after “also recorded” stand apart in the source; their conditions may differ.

Columns and labels:
NTCP = biological target: T1, NTCP (Homo sapiens, UniProt Q14973); test: In vitro uptake assay with [^3H]TC in CHO-NTCP cells
T1 sequence (Q14973 1-349): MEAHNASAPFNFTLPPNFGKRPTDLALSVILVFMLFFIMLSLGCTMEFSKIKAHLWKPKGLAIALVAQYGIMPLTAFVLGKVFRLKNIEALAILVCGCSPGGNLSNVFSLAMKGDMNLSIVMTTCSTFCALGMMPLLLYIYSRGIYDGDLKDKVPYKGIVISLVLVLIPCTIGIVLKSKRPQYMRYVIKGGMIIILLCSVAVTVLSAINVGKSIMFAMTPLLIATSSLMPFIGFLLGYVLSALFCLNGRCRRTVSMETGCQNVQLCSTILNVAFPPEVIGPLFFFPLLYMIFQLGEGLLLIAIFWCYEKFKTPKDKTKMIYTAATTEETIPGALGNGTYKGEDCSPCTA
Description: (§1) Transport of 3β-fluorocholic acid by NTCP, OATP1B1 and OATP1B3 was assessed using stable transfected cell lines. Chinese hamster ovary (CHO) cells, Human Embryonic Kidney (HEK), HEK293-OATP1B3 cells were purchased from Solvo Biotechnologies; CHO-NTCP and HEK293-OATP1B1 cells were a kind gift from the same company. CHO cells were cultured in Dulbecco’s modified Eagle’s medium (DMEM)/F12 with 10% fetal calf serum, 0.3 mM L-proline, 2 mM glutamine and penicilline/streptomycine (50 U/mL). HEK cells expressing OATP1B1, OATP1B3 and control cell lines were cultured in DMEM glutamax (high glucose/pyruvate) with 10% fetal calf serum, MEM non-essential amino acid supplement and penicilline/streptomycine (50 U/mL). All cell lines were cultured in a 37°C 5% CO2 environment.
(§2) Transport of FCA by the NTCP, OATP1B1 and OATP1B3 transporters was assessed by inhibition of the tritium labeled model substrates uptake.
Cells were seeded in 24-well plates at 400,000 cells per well. After 24 hours, the culture medium was removed and cells were washed twice with 1 mL 10 mM HEPES-Hank’s Balanced Salt Solution (HBSS; with Ca and Mg; 37°C pH 7.4) washing buffer. […] Of the dosing solution, 250 μL was added to the washed cells and incubation took place at 37°C for 15 minutes. The plates were cooled on ice and 1 mL 1% BSA ice-cold HBSS (with Ca and Mg) was added. Cells were washed twice with 2 mL ice-cold HBSS (with Ca and Mg) and were finally lysed with 250 μL 0.1 M NaOH. The plates were shaken for 15 minutes at 37°C. Of the lysate, 150 μL was used for liquid scintillation counting (TriCarb 2900 TR; Perkin Elmer) and 25 μL was subjected to a BCA assay (ThermoFisher Scientific) to determine protein content. Data points were collected in triplicate. IC50-values were calculated with Graphpad Prism v3.00 (Graphpad software).

OATP1B1 = biological target: T2, OATP1B1 (Homo sapiens, UniProt Q9Y6L6); test: In vitro uptake assay with [^3H]EbG in HEK-OATP1B1 cells
T2 sequence (Q9Y6L6 1-691): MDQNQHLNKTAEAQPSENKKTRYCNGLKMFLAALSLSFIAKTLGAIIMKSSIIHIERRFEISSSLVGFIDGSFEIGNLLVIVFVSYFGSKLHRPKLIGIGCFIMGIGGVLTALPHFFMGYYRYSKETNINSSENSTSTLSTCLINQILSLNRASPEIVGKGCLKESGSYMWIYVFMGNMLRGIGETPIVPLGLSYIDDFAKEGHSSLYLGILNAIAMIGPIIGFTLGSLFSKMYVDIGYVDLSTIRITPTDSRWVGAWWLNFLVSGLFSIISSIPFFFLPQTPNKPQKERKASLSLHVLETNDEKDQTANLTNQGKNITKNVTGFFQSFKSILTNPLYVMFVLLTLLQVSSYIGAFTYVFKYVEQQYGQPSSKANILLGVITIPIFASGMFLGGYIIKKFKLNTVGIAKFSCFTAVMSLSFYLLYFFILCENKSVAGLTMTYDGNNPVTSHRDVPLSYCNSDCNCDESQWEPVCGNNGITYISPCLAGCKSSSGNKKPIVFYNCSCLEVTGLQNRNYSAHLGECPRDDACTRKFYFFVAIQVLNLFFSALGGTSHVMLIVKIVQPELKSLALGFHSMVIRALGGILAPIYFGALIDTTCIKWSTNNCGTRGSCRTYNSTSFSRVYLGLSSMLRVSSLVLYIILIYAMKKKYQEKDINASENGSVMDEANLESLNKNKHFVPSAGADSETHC
Description: as §1, §2
(§3) Cells were seeded in 24-well plates at 400,000 cells per well. […] The plates were cooled on ice and 1 mL 1% BSA ice-cold HBSS (with Ca and Mg) was added. Cells were washed twice with 2 mL ice-cold HBSS (with Ca and Mg) and were finally lysed with 250 μL 0.1 M NaOH. […] Of the lysate, 150 μL was used for liquid scintillation counting (TriCarb 2900 TR; Perkin Elmer) and 25 μL was subjected to a BCA assay (ThermoFisher Scientific) to determine protein content. Data points were collected in triplicate. IC50-values were calculated with Graphpad Prism v3.00 (Graphpad software).

OATP1B3 = biological target: T3, OATP1B3 (Homo sapiens, UniProt Q9NPD5); test: In vitro uptake assay with [^3H]EbG in HEK-OATP1B3 cells
T3 sequence (Q9NPD5 1-702): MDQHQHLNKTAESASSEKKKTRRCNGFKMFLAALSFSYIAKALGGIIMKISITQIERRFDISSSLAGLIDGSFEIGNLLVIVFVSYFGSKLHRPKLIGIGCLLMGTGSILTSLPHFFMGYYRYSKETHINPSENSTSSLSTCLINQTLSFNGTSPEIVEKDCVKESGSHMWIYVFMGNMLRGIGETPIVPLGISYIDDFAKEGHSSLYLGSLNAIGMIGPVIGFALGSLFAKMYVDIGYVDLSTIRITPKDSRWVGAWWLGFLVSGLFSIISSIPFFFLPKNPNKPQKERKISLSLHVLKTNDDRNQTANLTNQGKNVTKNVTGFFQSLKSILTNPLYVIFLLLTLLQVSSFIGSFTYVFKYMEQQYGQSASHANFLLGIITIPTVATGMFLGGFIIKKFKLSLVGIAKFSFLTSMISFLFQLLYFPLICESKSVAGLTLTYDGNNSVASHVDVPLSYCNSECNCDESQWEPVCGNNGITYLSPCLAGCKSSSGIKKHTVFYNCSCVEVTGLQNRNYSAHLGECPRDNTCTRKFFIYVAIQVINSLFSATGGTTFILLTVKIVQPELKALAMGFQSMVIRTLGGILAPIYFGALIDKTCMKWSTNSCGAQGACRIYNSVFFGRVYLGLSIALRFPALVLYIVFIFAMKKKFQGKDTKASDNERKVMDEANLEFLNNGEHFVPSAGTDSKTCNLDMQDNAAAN
Description: as §1, §2, §3

BSEP = BSEP (Homo sapiens, UniProt O95342); test: In vitro efflux competition assay with [^3H]TC in BSEP membrane vesicles
Description: (§4) The assay was performed in 96-well plates. […] The final volume in each well was 30 μL. The plates were incubated for 10 minutes at 37°C and uptake was halted by the addition of 150 μL ice-cold buffer solution. The contents of each well were transferred to a glass fiber filter plate (Multiscreen HTS plates; Merck Millipore) and washed 3 times with 200 μL of ice-cold buffer solution. Vesicles were lysed by incubation with 100 μL 0.1 M NaOH for 10 minutes at room temperature. An 80 μL aliquot of this solution was used for liquid scintillation counting. Data points were collected in triplicate. IC50-values were calculated with Graphpad Prism v3.00.

MRP2 = MRP2 (Homo sapiens, UniProt Q92887); test: In vitro efflux competition assay with [^3H]EbG in MRP2 membrane vesicles
Description: as §4

[1] = LogD of [^18F]FCA in octanol/PBS pH 7.4; format: physicochemical; conditions: octanol/PBS 50:50 v:v, n = 3
Description: 1 MBq of [^18F]FCA was used to spike an octanol/PBS 50:50 v:v pH 7.4 mixture in a test tube. After mixing and centrifugation (5 min; 1100 g), aliquots were taken from each layer and radioactivity was measured in a NaI (Tl) scintillation counter (Capintec; Ramsey, NJ, USA). The LogD value of [^18F]FCA was calculated as the logarithm of the ratio of counts in octanol and PBS.

[2] = Stability of [^18F]FCA in its PBS formulation; format: physicochemical; conditions: PBS pH 7.4 formulation; room temperature
[3] = Dynamic PET of [^18F]FCA in wild-type FVB mice; format: in vivo
Description: Food and water was provided ad libitum. Animals were fasted overnight before the PET-scan.
A CT-scan was acquired for anatomical correlation.
In vivo characteristics of [^18F]FCA were investigated by a two hour dynamic PET scan with 30 MBq [^18F]FCA, injected intravenously (n = 3). Four and six hours post-injection, a 30 minute static scan was performed.
P-values ≤ 0.05 were considered significant.

[4] = test system: hepatobiliary transport of [^18F]FCA; test: Dynamic PET of [^18F]FCA in control, rifampicin and bosentan treated FVB-mice; conditions: female, FVB, mouse, in vivo
Description: Hepatobiliary transport of the tracer was evaluated in female wild-type FVB mice (5 weeks old, Charles River). The animals were housed in accordance with European Ethics Committee guidelines. The animal studies were approved by the Animal Experimental Ethical Committee of Ghent University (ECD 15/69). Food and water was provided ad libitum. Animals were fasted overnight before the PET-scan.
Mice were anesthetized with 1.5 v:v % isoflurane in 100% O2 for the duration of the experiment. An intravenous polyethylene line was placed in the lateral tail vein. The animals were placed in the small animal PET/CT-scanner (FLEX Triumph II small animal PET/CT-scanner; PET field of view: 7.5 cm axial; 1.3 mm spatial resolution; TriFoil Imaging) on a heated bed. A CT-scan was acquired for anatomical correlation.
The interaction of rifampicin (Sigma Aldrich) and bosentan (Activate Scientific) on in vivo [^18F]FCA transport was examined. FVB-mice were divided into 3 different groups (n = 3 per group): rifampicin, bosentan, and a control DMSO vehicle treated group). Both drugs were administered in doses of 100 mg/kg, intra-peritoneal in DMSO:PBS 70:30 v:v (rifampicin) or DMSO (bosentan) 1 hour before the start of the PET-scan. An additional dose (25 mg/kg for rifampicin in DMSO:PBS 40:60 v:v, 50 mg/kg for bosentan in DMSO) was co-injected intravenously with the tracer.
For each scan, 10 MBq of [^18F]FCA was administered intravenously and a 1 hour dynamic scan was started. Immediately after the dynamic scan, 18 MBq [^18F]FDG was injected intravenously. After 20 minutes, a 20 minutes static scan was taken.
PET-data were obtained in list-mode and were iteratively reconstructed (50 iterations) in frames of 15 seconds for the first 10 minutes, followed by 50 frames of 1 minute. ROI’s were drawn manually over liver, gallbladder and intestines using PMod software. A ROI was drawn in the left ventricle on the static [^18F]FDG scan to obtain an image-derived arterial blood input curve. The uptake of [^18F]FCA in arterial blood, liver, gallbladder and intestines was expressed as a % injected dose (% ID) and normalized for the weight of a 20 gram mouse. Time-activity curves (TAC’s) were generated using these values.
AUC, maximum % ID, and time to peak values were determined for the TAC’s with Graphpad Prism v3.00. Differences between 2 groups were determined with the non-parametric Mann-Whitney U test. P-values ≤ 0.05 were considered significant.

[5] = Stability of [^18F]FCA in mouse serum
[6] = Stability/metabolization of [^18F]FCA with primary mouse hepatocytes; conditions: mouse
[7] = test system: primary mouse hepatocytes; test: as above; conditions: 37°C

Sequence of MRP2 (Q92887 whole entry): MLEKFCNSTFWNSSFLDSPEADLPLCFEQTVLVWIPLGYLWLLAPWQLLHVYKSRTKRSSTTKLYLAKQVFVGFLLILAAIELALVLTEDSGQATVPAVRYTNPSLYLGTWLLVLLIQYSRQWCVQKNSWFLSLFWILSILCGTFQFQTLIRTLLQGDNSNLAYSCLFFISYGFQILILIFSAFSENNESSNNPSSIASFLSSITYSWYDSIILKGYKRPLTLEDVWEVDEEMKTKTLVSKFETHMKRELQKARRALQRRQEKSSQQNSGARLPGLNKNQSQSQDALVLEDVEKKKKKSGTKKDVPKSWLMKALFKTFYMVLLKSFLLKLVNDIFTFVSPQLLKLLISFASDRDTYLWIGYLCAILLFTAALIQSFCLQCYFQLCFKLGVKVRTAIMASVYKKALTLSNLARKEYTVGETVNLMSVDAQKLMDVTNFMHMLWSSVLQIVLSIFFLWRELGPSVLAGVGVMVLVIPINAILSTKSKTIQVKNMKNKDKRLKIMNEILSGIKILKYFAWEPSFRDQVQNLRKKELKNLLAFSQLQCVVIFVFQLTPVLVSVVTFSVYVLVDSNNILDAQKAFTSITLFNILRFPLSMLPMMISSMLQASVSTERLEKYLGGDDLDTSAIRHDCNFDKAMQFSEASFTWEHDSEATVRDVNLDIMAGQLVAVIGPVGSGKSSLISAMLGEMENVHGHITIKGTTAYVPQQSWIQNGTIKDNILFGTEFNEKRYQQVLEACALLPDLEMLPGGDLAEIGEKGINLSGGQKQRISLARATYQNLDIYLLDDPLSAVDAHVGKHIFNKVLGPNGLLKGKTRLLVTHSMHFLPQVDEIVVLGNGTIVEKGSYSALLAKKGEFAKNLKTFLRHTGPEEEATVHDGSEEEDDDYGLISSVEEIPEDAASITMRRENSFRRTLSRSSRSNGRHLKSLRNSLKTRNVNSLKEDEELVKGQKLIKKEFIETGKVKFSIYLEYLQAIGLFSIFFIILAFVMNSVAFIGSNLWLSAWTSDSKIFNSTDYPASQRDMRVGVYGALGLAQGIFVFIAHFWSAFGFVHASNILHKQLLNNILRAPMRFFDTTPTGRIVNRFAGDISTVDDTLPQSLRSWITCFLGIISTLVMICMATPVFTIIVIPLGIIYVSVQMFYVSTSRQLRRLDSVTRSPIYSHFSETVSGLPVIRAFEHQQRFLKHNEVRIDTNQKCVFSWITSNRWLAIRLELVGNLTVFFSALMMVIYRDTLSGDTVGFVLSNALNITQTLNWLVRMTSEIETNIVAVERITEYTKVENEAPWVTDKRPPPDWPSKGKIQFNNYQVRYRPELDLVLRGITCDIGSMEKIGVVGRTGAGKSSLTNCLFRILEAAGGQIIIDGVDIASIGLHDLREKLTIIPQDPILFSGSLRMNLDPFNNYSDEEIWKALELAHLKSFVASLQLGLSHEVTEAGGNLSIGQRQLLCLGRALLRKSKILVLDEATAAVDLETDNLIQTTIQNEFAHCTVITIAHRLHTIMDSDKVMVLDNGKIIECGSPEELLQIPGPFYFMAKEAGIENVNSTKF
Sequence of BSEP (O95342 whole entry): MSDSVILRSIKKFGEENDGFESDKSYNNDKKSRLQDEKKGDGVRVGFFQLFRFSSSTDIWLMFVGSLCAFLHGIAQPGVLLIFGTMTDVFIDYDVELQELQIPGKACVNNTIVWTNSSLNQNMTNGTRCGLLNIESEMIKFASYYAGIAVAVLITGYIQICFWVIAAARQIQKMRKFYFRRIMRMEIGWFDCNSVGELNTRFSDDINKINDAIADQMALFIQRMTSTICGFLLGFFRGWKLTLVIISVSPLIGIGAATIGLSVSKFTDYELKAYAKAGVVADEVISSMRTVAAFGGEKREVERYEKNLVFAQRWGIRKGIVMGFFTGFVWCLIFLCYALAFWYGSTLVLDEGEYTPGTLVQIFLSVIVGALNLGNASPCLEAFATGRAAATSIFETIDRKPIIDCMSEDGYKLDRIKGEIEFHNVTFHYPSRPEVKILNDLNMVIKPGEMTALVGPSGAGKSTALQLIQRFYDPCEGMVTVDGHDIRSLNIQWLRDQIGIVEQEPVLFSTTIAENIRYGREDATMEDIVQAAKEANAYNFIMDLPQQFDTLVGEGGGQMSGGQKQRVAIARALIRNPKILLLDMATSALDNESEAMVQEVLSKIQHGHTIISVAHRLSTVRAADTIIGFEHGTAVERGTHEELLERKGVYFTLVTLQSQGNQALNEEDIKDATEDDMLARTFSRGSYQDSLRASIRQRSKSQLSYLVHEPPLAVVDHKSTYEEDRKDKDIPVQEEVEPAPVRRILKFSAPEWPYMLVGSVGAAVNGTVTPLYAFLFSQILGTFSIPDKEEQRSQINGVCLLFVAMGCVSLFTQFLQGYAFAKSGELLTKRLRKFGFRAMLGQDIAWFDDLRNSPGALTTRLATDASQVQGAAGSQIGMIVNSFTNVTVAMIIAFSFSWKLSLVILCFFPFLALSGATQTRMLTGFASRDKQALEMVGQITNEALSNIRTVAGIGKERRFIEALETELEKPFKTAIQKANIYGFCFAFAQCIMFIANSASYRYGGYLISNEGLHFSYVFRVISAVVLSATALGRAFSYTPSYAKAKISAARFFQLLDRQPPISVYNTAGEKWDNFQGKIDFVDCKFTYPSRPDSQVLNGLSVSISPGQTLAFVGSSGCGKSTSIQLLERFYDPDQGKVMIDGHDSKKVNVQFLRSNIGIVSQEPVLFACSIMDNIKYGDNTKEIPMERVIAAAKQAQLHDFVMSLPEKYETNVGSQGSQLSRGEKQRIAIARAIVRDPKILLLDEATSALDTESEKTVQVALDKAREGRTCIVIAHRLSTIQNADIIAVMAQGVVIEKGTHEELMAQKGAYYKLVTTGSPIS

## C[C@H](CCC(=O)O)[C@H]1CC[C@H]2[C@@H]3[C@H](O)C[C@@H]4C[C@@H](F)CC[C@]4(C)[C@H]3C[C@H](O)[C@]12C [FCA, 3β-Fluoro-7α,12α-Dihydroxy-5β-Cholanic acid]
NTCP
  IC50: 6.6 ± 0.8 µM
OATP1B1
  IC50: 10.5 ± 1.1 µM
OATP1B3
  IC50: 25.2 ± 12.7 µM
BSEP
  IC50: 253 ± 76 µM
MRP2
  IC50: 577 ± 300 µM

## C[C@H](CCC(=O)O)[C@H]1CC[C@H]2[C@@H]3[C@H](O)C[C@@H]4C[C@@H]([18F])CC[C@]4(C)[C@H]3C[C@H](O)[C@]12C [[^18F]FCA, 3β-[^18F]Fluorocholic Acid]
[1]
  logD: 1.19 ± 0.1
[2]
  time stable in PBS formulation: at least 6 hours
[3]; IV, n = 3
  AUC gallbladder & intestines % injected dose: 4105 ± 36 % ID.min
  Time to peak liver: 4.5 min and 4.5 ± 0.5 min
[3]; IV, n = 3, normalized for a 20 g mouse
  Max % injected dose liver: 71.8 % ID and 71.8 ± 1.2 % ID
[3]; PET/CT images up to 6 hours post-injection
  uptake in urinary bladder or other organs: no uptake in other organs than liver, gallbladder and intestines
[3]; after 1 hour
  radioactivity in gallbladder and intestines: 93.3 ± 6.0 % ID and 93.3 % ID
[4]
  AUC arterial blood % injected dose: 1.909 ± 0.572 % ID.min
  AUC gallbladder & intestines % injected dose: 3718 ± 182 % ID.min
  Time to peak liver: 5.5 ± 1.1 min
[4]; iv
  Max % injected dose liver: 71.2 ± 3.5 % ID
[5]; 37°C
  time stable in presence of mouse serum: at least 1 hour
[5]; 37°C, 5, 10, 30 and 60 minutes
  degradation or metabolization products in mouse serum: No degradation or metabolization products
[5]; mouse
  recovery at 5 min, 37 MBq/mL: 100%
  recovery at 10 min, 37 MBq/mL: 100%
  recovery at 30 min, 37 MBq/mL: 100%
  recovery at 60 min, 37 MBq/mL: 100%
[6]
  recovery at 5 min, 37 MBq/mL: 100%
  recovery at 10 min, 37 MBq/mL: 100%
  recovery at 30 min, 37 MBq/mL: 100%
  recovery at 60 min, 37 MBq/mL: 100%
[7]
  time stable in presence of primary mouse hepatocytes: at least 1 hour
[7]; 5, 10, 30 and 60 minutes
  degradation or metabolization products with primary mouse hepatocytes: metabolically stable; also recorded: No degradation or metabolization products
